Experiments:
Erigeron canadensis [1] = test: Herbicidal activity against glyphosate-resistant Conyza canadensis (horseweed) assessed as residual control at 420 g a.i./ha treated during autumn and spring measured 8 weeks after treatment; format: functional
Gossypium hirsutum = test: Toxicity in Gossypium hirsutum (cotton) assessed as formation of injury to cotton; format: organism-based; settings: in vivo
Erigeron canadensis [2] = test: Herbicidal activity against glyphosate-resistant Conyza canadensis (horseweed) assessed as residual control at 420 g a.i./ha treated during autumn and spring measured 6 weeks after treatment; format: functional
Erigeron canadensis [3] = test: Herbicidal activity against glyphosate-resistant Conyza canadensis (horseweed) assessed as residual control at 420 g a.i./ha treated during autumn and spring measured 4 weeks after treatment; format: functional
Erigeron canadensis [4] = test: Herbicidal activity against glyphosate-resistant Conyza canadensis (horseweed) assessed as residual control at 1120 g a.i./ha treated during autumn and spring measured 6 weeks after treatment; format: functional
Erigeron canadensis [5] = test: Herbicidal activity against glyphosate-resistant Conyza canadensis (horseweed) assessed as residual control at 1120 g a.i./ha treated during autumn and spring measured 4 weeks after treatment; format: functional
Erigeron canadensis [6] = test: Herbicidal activity against glyphosate-resistant Conyza canadensis (horseweed) assessed as residual control at 1120 g a.i./ha treated during autumn and spring measured 8 weeks after treatment; format: functional
Erigeron canadensis [7] = test: Herbicidal activity against glyphosate-resistant Conyza canadensis (horseweed) assessed as residual control at 1400 g a.i./ha treated during autumn and spring measured 8 weeks after treatment; format: functional
Erigeron canadensis [8] = test: Herbicidal activity against glyphosate-resistant Conyza canadensis (horseweed) assessed as residual control at 1400 g a.i./ha treated during autumn and spring measured 4 weeks after treatment; format: functional
Erigeron canadensis [9] = test: Herbicidal activity against glyphosate-resistant Conyza canadensis (horseweed) assessed as residual control at 1400 g a.i./ha treated during autumn and spring measured 6 weeks after treatment; format: functional
Erigeron canadensis [10] = test: Herbicidal activity against glyphosate-resistant Conyza canadensis (horseweed) assessed as residual control at 47 g a.i./ha treated during autumn and spring measured 4 weeks after treatment; format: functional
Erigeron canadensis [11] = test: Herbicidal activity against glyphosate-resistant Conyza canadensis (horseweed) assessed as residual control at 47 g a.i./ha treated during autumn and spring measured 6 weeks after treatment; format: functional
Erigeron canadensis [12] = test: Herbicidal activity against glyphosate-resistant Conyza canadensis (horseweed) assessed as residual control at 47 g a.i./ha treated during autumn and spring measured 8 weeks after treatment; format: functional
Erigeron canadensis [13] = test: Herbicidal activity against glyphosate-resistant Conyza canadensis (horseweed) assessed as residual control at 1680 g a.i./ha treated during autumn and spring measured 6 weeks after treatment; format: functional
Erigeron canadensis [14] = test: Herbicidal activity against glyphosate-resistant Conyza canadensis (horseweed) assessed as residual control at 1680 g a.i./ha treated during autumn and spring measured 4 weeks after treatment; format: functional
Erigeron canadensis [15] = test: Herbicidal activity against glyphosate-resistant Conyza canadensis (horseweed) assessed as residual control at 1680 g a.i./ha treated during autumn and spring measured 8 weeks after treatment; format: functional
[16] = Half life of the compound
[17] = Half life of the compound under anaerobic condition
[18] = Half life of the compound under aerobic condition
Erigeron canadensis [19] = test: Herbicidal activity against glyphosate-resistant Conyza canadensis (horseweed) assessed as residual control at 71 g a.i./ha treated during autumn and spring measured 8 weeks after treatment; format: functional
Erigeron canadensis [20] = test: Herbicidal activity against glyphosate-resistant Conyza canadensis (horseweed) assessed as residual control at 71 g a.i./ha treated during autumn and spring measured 6 weeks after treatment; format: functional
Erigeron canadensis [21] = test: Herbicidal activity against glyphosate-resistant Conyza canadensis (horseweed) assessed as residual control at 71 g a.i./ha treated during autumn and spring measured 4 weeks after treatment; format: functional

CCOc1cc(Oc2ccc(C(F)(F)F)cc2Cl)ccc1[N+](=O)[O-] [OXYFLUORFEN]
Activity (Erigeron canadensis [1]): 95% | Activity (Gossypium hirsutum): Non-toxic | Activity (Erigeron canadensis [2]): 99% | Activity (Erigeron canadensis [3]): 100%

CSc1nc(NC(C)C)nc(NC(C)C)n1 [PROMETRYN]
Activity (Erigeron canadensis [4]): 98% | Activity (Erigeron canadensis [5]): 100% | Activity (Erigeron canadensis [6]): 20% | Activity (Gossypium hirsutum): Non-toxic

CN(C)C(=O)Nc1cccc(C(F)(F)F)c1 [FLUOMETURON]
Activity (Erigeron canadensis [7]): 80% | Activity (Erigeron canadensis [8]): 98% | Activity (Gossypium hirsutum): Non-toxic | Activity (Erigeron canadensis [9]): 99%

COc1cc(OC)nc(Sc2cccc(Cl)c2C(=O)O)n1 [PYRITHIOBAC]
Activity (Erigeron canadensis [10]): 60% | Activity (Erigeron canadensis [11]): 72% | Activity (Gossypium hirsutum): Non-toxic | Activity (Erigeron canadensis [12]): 37%

CN(C)C(=O)Nc1ccc(Cl)c(Cl)c1 [DCMU]
Activity (Erigeron canadensis [4]): 99% | Activity (Erigeron canadensis [5]): 100% | Activity (Erigeron canadensis [6]): 25% | Activity (Gossypium hirsutum): Non-toxic

CNc1cnn(-c2cccc(C(F)(F)F)c2)c(=O)c1Cl [NORFLURAZONE]
Activity (Erigeron canadensis [13]): 100% | Activity (Erigeron canadensis [14]): 100% | Activity (Erigeron canadensis [15]): 100% | Activity (Gossypium hirsutum): Non-toxic

COc1c(Cl)ccc(Cl)c1C(=O)O [3,6 DICHLOROMETHOXYBENZOIC ACID]
half-life [16]: 7 days | half-life [17]: 58 days | half-life [18]: 31 days

C#CCN1C(=O)COc2cc(F)c(N3C(=O)C4=C(CCCC4)C3=O)cc21 [FLUMIOXAZIN]
Activity (Erigeron canadensis [19]): 35% | Activity (Erigeron canadensis [20]): 99% | Activity (Gossypium hirsutum): Non-toxic | Activity (Erigeron canadensis [21]): 100%

From ChEMBL document CHEMBL3046394, “Conyza canadensis (L.) Cronquist response to pre-plant application of residual herbicides in cotton (Gossypium hirsutum L.)” (Crop Prot, 2009)
